Measured values taken from patent publication US8178506B2, “Oligomeric compounds and compositions for use in modulation of small non-coding RNAs” (Regulus Therapeutics Inc., priority 2003, dated 2012).
In the oligonucleotide strings, read from the 5' end, every base follows the letter of its sugar. An asterisk marks phosphorothioate; unmarked linkages are phosphodiester. Other units and linkages are bracketed, terminal groups are in braces. A string of capitals states the bases alone. e = 2'-O-(2-methoxyethyl) (MOE); [5mC] = 5-methylcytosine; d = 2'-deoxy (DNA)

Tests used:
Assay type in all cases: cell-based, human
adipocytes = assay: Triglyceride accumulation assay in adipocytes; settings: for Triglycerides: differentiating adipocytes day 10 post-induction, 24 hours after treatment
aP2 = aP2 mRNA expression in adipocytes (real-time PCR); settings: for aP2 mRNA: Table 75
HSL = HSL mRNA expression in adipocytes (real-time PCR)
Glut4 = Glut4 mRNA expression in adipocytes (real-time PCR)
PPARγ = PPARγ mRNA expression in adipocytes (real-time PCR); settings: for PPAR-gamma mRNA: differentiating adipocytes day 10 post-induction, 24 hours after treatment
[1] = Table 17, differentiating adipocytes, control = treatment with ISIS 342673
[2] = differentiating adipocytes transfected with oligomeric compound, Table 75
[3] = differentiating adipocytes transfected with oligomeric compound
[4] = Table 18, differentiating adipocytes, control = treatment with ISIS 342673
[5] = 50 nM, differentiating adipocytes day 10 post-induction, 24 hours after treatment
[6] = 100 nM, differentiating adipocytes day 10 post-induction, 24 hours after treatment
[7] = 200 nM, differentiating adipocytes day 10 post-induction, 24 hours after treatment
[8] = 300 nM, differentiating adipocytes day 10 post-induction, 24 hours after treatment

Substance: 328129 (antisense eA*eG*e[5mC]*e[5mC]*eT*e[5mC]*e[5mC]*eT*eT*e[5mC]*eT*eT*e[5mC]*eT*e[5mC]*eG*eT*eA*e[5mC]*eT*eA) [compound 328129]
- TG (triglyceride accumulation) (adipocytes; [1]): 53.8 percentage of control
- TG (triglyceride accumulation) (adipocytes; [2]): 19 percentage of untreated control (UTC)
- AP2 mRNA (aP2; [1]): 67.6 percentage of control
- aP2 mRNA (aP2; [3]): 54 percentage of untreated control (UTC)
- HSL mRNA (HSL; [1]): 56.5 percentage of control
- HSL mRNA (HSL; [2]): 34 percentage of untreated control (UTC)
- GLUT4 mRNA (Glut4; [1]): 60.0 percentage of control
- GLUT4 mRNA (Glut4; [2]): 36 percentage of untreated control (UTC)
- PPAR gamma mRNA (PPARγ; [1]): 71.8 percentage of control
- PPAR gamma mRNA (PPARγ; [2]): 59 percentage of untreated control (UTC)

Substance: 328137 (eG*eT*eA*eA*eG*e[5mC]*eG*e[5mC]*eA*eG*e[5mC]*eT*e[5mC]*e[5mC]*eA*e[5mC]*eA*eG*eG*e[5mC]*eT; anti-miR) [compound 328137]
- TG (triglyceride accumulation) (adipocytes; [1]): 83.2 percentage of control
- TG (triglyceride accumulation) (adipocytes; [2]): 37 percentage of untreated control (UTC)
- AP2 mRNA (aP2; [1]): 99.6 percentage of control
- aP2 mRNA (aP2; [3]): 45 percentage of untreated control (UTC)
- HSL mRNA (HSL; [1]): 86.3 percentage of control
- HSL mRNA (HSL; [2]): 25 percentage of untreated control (UTC)
- GLUT4 mRNA (Glut4; [1]): 88.5 percentage of control
- GLUT4 mRNA (Glut4; [2]): 29 percentage of untreated control (UTC)
- PPAR gamma mRNA (PPARγ; [1]): 85.7 percentage of control
- PPAR gamma mRNA (PPARγ; [2]): 36 percentage of untreated control (UTC)

Substance: 328685 (e[5mC]*eG*eG*e[5mC]*e[5mC]*dG*dG*dA*dG*d[5mC]*d[5mC]*dA*dT*dA*dG*eA*e[5mC]*eT*e[5mC]*eG; antisense) [compound 328685]
- TG (triglyceride accumulation) (adipocytes; [3]): 50 percentage of untreated control (UTC)
- AP2 mRNA (aP2; [3]): 73 percentage of untreated control (UTC)
- HSL mRNA (HSL; [3]): 100 percentage of untreated control (UTC)
- GLUT4 mRNA (Glut4; [3]): 69 percentage of untreated control (UTC)
- PPAR gamma mRNA (PPARγ; [3]): 91 percentage of untreated control (UTC)

Substance: 328110 (antisense eG*eA*eT*eA*eA*eA*eG*e[5mC]*e[5mC]*eA*eA*eT*eA*eA*eA*e[5mC]*eT*eG*eT*e[5mC]*eA) [compound 328110]
- TG (triglyceride accumulation) (adipocytes; [4]): 97.7 percentage of control
- TG (triglyceride accumulation) (adipocytes; [2]): 96 percentage of untreated control (UTC)
- AP2 mRNA (aP2; [4]): 93.3 percentage of control
- aP2 mRNA (aP2; [3]): 89 percentage of untreated control (UTC)
- HSL mRNA (HSL; [4]): 91.0 percentage of control
- HSL mRNA (HSL; [2]): 84 percentage of untreated control (UTC)
- GLUT4 mRNA (Glut4; [4]): 104.7 percentage of control
- GLUT4 mRNA (Glut4; [2]): 77 percentage of untreated control (UTC)
- PPAR gamma mRNA (PPARγ; [4]): 91.2 percentage of control
- PPAR gamma mRNA (PPARγ; [2]): 80 percentage of untreated control (UTC)

Substance: 341800 (antisense AAGCCCAAAAGGAGAAUUCUUUG; all 2'-MOE, all phosphorothioate, methylation of C and T or U not given here) [compound 341800]
- TG (triglyceride accumulation) (adipocytes; [2]): 18 percentage of untreated control (UTC)
- aP2 mRNA (aP2; [3]): 50 percentage of untreated control (UTC)
- HSL mRNA (HSL; [2]): 42 percentage of untreated control (UTC)
- GLUT4 mRNA (Glut4; [2]): 28 percentage of untreated control (UTC)
- PPAR gamma mRNA (PPARγ; [2]): 61 percentage of untreated control (UTC)

Substance: 328136 (eA*eA*e[5mC]*eT*eA*e[5mC]*eT*eT*e[5mC]*e[5mC]*eA*eG*eA*eG*e[5mC]*eA*eG*eG*eT*eG*eA; anti-miR) [compound 328136]
- TG (triglyceride accumulation) (adipocytes; [1]): 47.0 percentage of control
- TG (triglyceride accumulation) (adipocytes; [2]): 26 percentage of untreated control (UTC)
- AP2 mRNA (aP2; [1]): 73.0 percentage of control
- aP2 mRNA (aP2; [3]): 57 percentage of untreated control (UTC)
- HSL mRNA (HSL; [1]): 65.0 percentage of control
- HSL mRNA (HSL; [2]): 37 percentage of untreated control (UTC)
- GLUT4 mRNA (Glut4; [1]): 66.7 percentage of control
- GLUT4 mRNA (Glut4; [2]): 35 percentage of untreated control (UTC)
- PPAR gamma mRNA (PPARγ; [1]): 72.7 percentage of control
- PPAR gamma mRNA (PPARγ; [2]): 54 percentage of untreated control (UTC)

Substance: 328138 (eG*eA*eG*e[5mC]*eT*eG*e[5mC]*eT*e[5mC]*eA*eG*e[5mC]*eT*eG*eG*e[5mC]*e[5mC]*eA*eT*e[5mC]*eA; anti-miR) [compound 328138]
- TG (triglyceride accumulation) (adipocytes; [1]): 100.6 percentage of control
- TG (triglyceride accumulation) (adipocytes; [2]): 80 percentage of untreated control (UTC)
- AP2 mRNA (aP2; [1]): 85.3 percentage of control
- aP2 mRNA (aP2; [3]): 52 percentage of untreated control (UTC)
- HSL mRNA (HSL; [1]): 89.8 percentage of control
- HSL mRNA (HSL; [2]): 56 percentage of untreated control (UTC)
- GLUT4 mRNA (Glut4; [1]): 86.8 percentage of control
- GLUT4 mRNA (Glut4; [2]): 52 percentage of untreated control (UTC)
- PPAR gamma mRNA (PPARγ; [1]): 83.8 percentage of control
- PPAR gamma mRNA (PPARγ; [2]): 63 percentage of untreated control (UTC)

Substance: 328677 (eT*e[5mC]*e[5mC]*eT*eG*dG*dA*dT*dG*dA*dT*dA*dT*d[5mC]*dT*eA*e[5mC]*e[5mC]*eT*e[5mC]; antisense) [compound 328677]
- TG (triglyceride accumulation) (adipocytes; [3]): 34 percentage of untreated control (UTC)
- AP2 mRNA (aP2; [3]): 61 percentage of untreated control (UTC)
- HSL mRNA (HSL; [3]): 68 percentage of untreated control (UTC)
- GLUT4 mRNA (Glut4; [3]): 44 percentage of untreated control (UTC)
- PPAR gamma mRNA (PPARγ; [3]): 89 percentage of untreated control (UTC)

Substance: 328125 (antisense eT*eA*eT*eG*eA*eA*eA*eT*eG*e[5mC]*e[5mC]*eA*eG*eA*eG*e[5mC]*eT*eG*e[5mC]*e[5mC]*eA) [compound 328125]
- TG (triglyceride accumulation) (adipocytes; [1]): 81.7 percentage of control
- TG (triglyceride accumulation) (adipocytes; [2]): 44 percentage of untreated control (UTC)
- AP2 mRNA (aP2; [1]): 86.9 percentage of control
- aP2 mRNA (aP2; [3]): 75 percentage of untreated control (UTC)
- HSL mRNA (HSL; [1]): 75.8 percentage of control
- HSL mRNA (HSL; [2]): 48 percentage of untreated control (UTC)
- GLUT4 mRNA (Glut4; [1]): 99.5 percentage of control
- GLUT4 mRNA (Glut4; [2]): 65 percentage of untreated control (UTC)
- PPAR gamma mRNA (PPARγ; [1]): 76.1 percentage of control
- PPAR gamma mRNA (PPARγ; [2]): 68 percentage of untreated control (UTC)

Substance: 342673 (antisense eA*eG*eA*e[5mC]*eT*eA*eG*e[5mC]*eG*eG*eT*eA*eT*e[5mC]*eT*eT*eT*eA*eT*e[5mC]*e[5mC]*e[5mC]) [compound 342673]
- Triglycerides (adipocytes; 50 nM): 94.2 % UTC
- Triglycerides (adipocytes; 100 nM): 105.3 % UTC
- Triglycerides (adipocytes; 200 nM): 98.3 % UTC
- Triglycerides (adipocytes; 300 nM): 108.2 % UTC
- TG (triglyceride accumulation) (adipocytes; [1]): 100.0 percentage of control
- TG (triglyceride accumulation) (adipocytes; [4]): 100 percentage of control
- AP2 mRNA (aP2; [5]): 82.4 % UTC
- AP2 mRNA (aP2; [6]): 90.3 % UTC
- AP2 mRNA (aP2; [7]): 81.1 % UTC
- AP2 mRNA (aP2; [8]): 70.9 % UTC
- AP2 mRNA (aP2; [1]): 100.0 percentage of control
- AP2 mRNA (aP2; [4]): 100 percentage of control
- HSL mRNA (HSL; [5]): 92.0 % UTC
- HSL mRNA (HSL; [6]): 95.6 % UTC
- HSL mRNA (HSL; [7]): 97.3 % UTC
- HSL mRNA (HSL; [8]): 85.2 % UTC
- HSL mRNA (HSL; [1]): 100.0 percentage of control
- HSL mRNA (HSL; [4]): 100 percentage of control
- GLUT4 mRNA (Glut4; [5]): 94.9 % UTC
- GLUT4 mRNA (Glut4; [6]): 90.7 % UTC
- GLUT4 mRNA (Glut4; [7]): 97.6 % UTC
- GLUT4 mRNA (Glut4; [8]): 102.7 % UTC
- GLUT4 mRNA (Glut4; [1]): 100.0 percentage of control
- GLUT4 mRNA (Glut4; [4]): 100 percentage of control
- PPAR-gamma mRNA (PPARγ; 50 nM): 77.5 % UTC
- PPAR-gamma mRNA (PPARγ; 100 nM): 89.9 % UTC
- PPAR-gamma mRNA (PPARγ; 200 nM): 94.6 % UTC
- PPAR-gamma mRNA (PPARγ; 300 nM): 85.8 % UTC
- PPAR gamma mRNA (PPARγ; [1]): 100.0 percentage of control
- PPAR gamma mRNA (PPARγ; [4]): 100 percentage of control

Substance: 328133 (eT*eG*eA*eA*eG*eG*eT*eT*e[5mC]*eG*eG*eA*eG*eA*eT*eA*eG*eG*e[5mC]*eT*eA; anti-miR) [compound 328133]
- TG (triglyceride accumulation) (adipocytes; [1]): 61.2 percentage of control
- TG (triglyceride accumulation) (adipocytes; [2]): 43 percentage of untreated control (UTC)
- AP2 mRNA (aP2; [1]): 69.5 percentage of control
- aP2 mRNA (aP2; [3]): 66 percentage of untreated control (UTC)
- HSL mRNA (HSL; [1]): 63.0 percentage of control
- HSL mRNA (HSL; [2]): 49 percentage of untreated control (UTC)
- GLUT4 mRNA (Glut4; [1]): 91.9 percentage of control
- GLUT4 mRNA (Glut4; [2]): 59 percentage of untreated control (UTC)
- PPAR gamma mRNA (PPARγ; [1]): 63.8 percentage of control
- PPAR gamma mRNA (PPARγ; [2]): 53 percentage of untreated control (UTC)
